Converted amounts (≈) assume the structure as drawn. “And” between values parts separate entries of the source, which are not always exact repeats. Identical values can stand only once.
Assays:
Mtb T 27 (INH-resistant) = assay: microbe, parasite or virus in culture; type: cell-based; conditions: Mycobacterium tuberculosis
[1] = tested on: Mtb Beijing 22 (RIF-resistant); assay: microbe, parasite or virus in culture; type: cell-based; conditions: Mycobacterium tuberculosis
[2] = tested on: Mtb Haarlem 9 (RIF-resistant); assay: microbe, parasite or virus in culture; type: cell-based; conditions: Mycobacterium tuberculosis
[3] = tested on: Mtb H37Rv resistant isolates with mmpL3 mutations; type: cell-based, Mycobacterium tuberculosis

SMILES | MIC (Mtb T 27 (INH-resistant)) [µg/mL] | MIC [1] [µg/mL] | MIC [2] [µg/mL] | susceptibility of DA5^R and TBL-140^R strains [3] | MIC [3]
NNC(=O)c1ccncc1 [INH, isoniazid] | > 0.8 | 0.025 (≈ 0.182 µM) | 0.025 (≈ 0.182 µM) | identical susceptibility as wild-type H37Rv | 
CC(C)=CCC/C(C)=C/CNCCNC1C2CC3CC(C2)CC1C3 (centres unmarked) [SQ109] |  |  |  |  | 6.25 µg/mL and 12.5 µg/mL
CC[C@@H](CO)NCCN[C@@H](CC)CO [EMB, ethambutol] | 1 (≈ 4.89 µM) | 1 (≈ 4.89 µM) | 1 (≈ 4.89 µM) | identical susceptibility as wild-type H37Rv | 
CO[C@H]1/C=C/O[C@@]2(C)Oc3c(C)c(O)c4c(O)c(c(/C=N/N5CCN(C)CC5)c(O)c4c3C2=O)NC(=O)/C(C)=C\C=C\[C@H](C)[C@H](O)[C@@H](C)[C@@H](O)[C@@H](C)[C@H](OC(C)=O)[C@@H]1C [RIF, rifampicin] | 0.0125 (≈ 0.0152 µM) |  |  | identical susceptibility as wild-type H37Rv | 
FC(F)(F)Oc1ccc(Oc2ccc(CNCCNC3C4CC5CC(C4)CC3C5)cc2)cc1 (centres unmarked) [Compound 8, N^1-adamantan-2-yl-N^2-(4-(4-(trifluoro-methoxy)phenoxy)benzyl)ethane-1,2-diamine] | 0.58 (≈ 1.26 µM) | 1.2 (≈ 2.61 µM) | 1.2 (≈ 2.61 µM) |  | 

Reference: article PMC6742494 (ACS infectious diseases, 2016)
